Assay results as given in the NIST ThermoML archive (doi:10.1016/j.fluid.2013.08.029).

Assay: xn = mol fraction of the nth substance listed
Conditions: 101 kPa, Liquid; for speed of sound: Sing-around technique in a fixed-path interferometer; for mass density: Vibrating tube method

CCCCn1cc[n+](C)c1C.F[B-](F)(F)F [1-butyl-2,3-dimethylimidazolium tetrafluoroborate] + OCCO
Conditions | mass density [kg/m3] | speed of sound [m/s]
288.15 K, x1 = 0.0698 | 1138.16 | 1674
288.15 K, x1 = 0.1114 | 1148.04 | 1668.1
288.15 K, x1 = 0.219 | 1163.09 | 1661.9
288.15 K, x1 = 0.3157 | 1172.24 | 1657
288.15 K, x1 = 0.4167 | 1177.8 | 1653.7
288.15 K, x1 = 0.5153 | 1181.99 | 1652.5
288.15 K, x1 = 0.6157 | 1185.96 | 1653.1
288.15 K, x1 = 0.7042 | 1189.36 | 1654.9
288.15 K, x1 = 0.8028 | 1192.88 | 1658
288.15 K, x1 = 0.9065 | 1196.58 | 1662.1
293.15 K, x1 = 0.0698 | 1134.55 | 1661
293.15 K, x1 = 0.1114 | 1144.09 | 1655.6
293.15 K, x1 = 0.219 | 1159.15 | 1649.5
293.15 K, x1 = 0.3157 | 1167.38 | 1643.8
293.15 K, x1 = 0.4167 | 1172.09 | 1639.4
293.15 K, x1 = 0.5153 | 1176.32 | 1638
293.15 K, x1 = 0.6157 | 1180.66 | 1638.7
293.15 K, x1 = 0.7042 | 1184.47 | 1641.5
293.15 K, x1 = 0.8028 | 1188.27 | 1645.2
293.15 K, x1 = 0.9065 | 1192.09 | 1649.9
298.15 K, x1 = 0.0698 | 1130.93 | 1648.8
298.15 K, x1 = 0.1114 | 1140.43 | 1643.3
298.15 K, x1 = 0.219 | 1155.3 | 1636.8
298.15 K, x1 = 0.3157 | 1162.95 | 1631.4
298.15 K, x1 = 0.4167 | 1167.85 | 1628.2
298.15 K, x1 = 0.5153 | 1171.8 | 1627.1
298.15 K, x1 = 0.6157 | 1176.73 | 1627.5
298.15 K, x1 = 0.7042 | 1180.56 | 1630.3
298.15 K, x1 = 0.8028 | 1184.59 | 1633.5
298.15 K, x1 = 0.9065 | 1188.59 | 1637.7
303.15 K, x1 = 0.0698 | 1127.3 | 1637
303.15 K, x1 = 0.1114 | 1136.79 | 1631.5
303.15 K, x1 = 0.219 | 1151.47 | 1624.4
303.15 K, x1 = 0.3157 | 1158.29 | 1619.7
303.15 K, x1 = 0.4167 | 1162.58 | 1616.6
303.15 K, x1 = 0.5153 | 1166.36 | 1615.5
303.15 K, x1 = 0.6157 | 1171.53 | 1616.5
303.15 K, x1 = 0.7042 | 1176.14 | 1618.8
303.15 K, x1 = 0.8028 | 1180.73 | 1621.7
303.15 K, x1 = 0.9065 | 1185.16 | 1625.7
308.15 K, x1 = 0.0698 | 1123.65 | 1625.3
308.15 K, x1 = 0.1114 | 1133.19 | 1619.4
308.15 K, x1 = 0.219 | 1147.66 | 1612.2
308.15 K, x1 = 0.3157 | 1154.93 | 1607.7
308.15 K, x1 = 0.4167 | 1158.22 | 1604.7
308.15 K, x1 = 0.5153 | 1161.45 | 1604.2
308.15 K, x1 = 0.6157 | 1167.01 | 1605
308.15 K, x1 = 0.7042 | 1172.28 | 1607.4
308.15 K, x1 = 0.8028 | 1177.55 | 1610.5
308.15 K, x1 = 0.9065 | 1182.72 | 1613.7
313.15 K, x1 = 0.0698 | 1120 | 1613.8
313.15 K, x1 = 0.1114 | 1129.53 | 1607.9
313.15 K, x1 = 0.219 | 1143.87 | 1600
313.15 K, x1 = 0.3157 | 1150.95 | 1595.7
313.15 K, x1 = 0.4167 | 1154.7 | 1592.9
313.15 K, x1 = 0.5153 | 1158.26 | 1592.8
313.15 K, x1 = 0.6157 | 1163.8 | 1594
313.15 K, x1 = 0.7042 | 1169.14 | 1596.4
313.15 K, x1 = 0.8028 | 1174.46 | 1598.9
313.15 K, x1 = 0.9065 | 1179.21 | 1602
318.15 K, x1 = 0.0698 | 1116.33 | 1602.5
318.15 K, x1 = 0.1114 | 1125.84 | 1596.2
318.15 K, x1 = 0.219 | 1140.07 | 1587.9
318.15 K, x1 = 0.3157 | 1147.06 | 1584
318.15 K, x1 = 0.4167 | 1150.9 | 1581.2
318.15 K, x1 = 0.5153 | 1154.9 | 1581.6
318.15 K, x1 = 0.6157 | 1160.61 | 1582.8
318.15 K, x1 = 0.7042 | 1165.8 | 1585.1
318.15 K, x1 = 0.8028 | 1171.11 | 1587.7
318.15 K, x1 = 0.9065 | 1175.65 | 1590.8
